Reference: PubChem BioAssay (NCI)
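Interpolation was linear, between the two tested concentrations surrounding the appropriate level; five concentrations were tested over 48 hours in 96-well plates. GI50 marks 50% less growth. TGI: total growth inhibition.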

Experiments:
Assay in all cases: NCI-60 cell line screen, 48 h
U251 CNS = system: U251 CNS
HOP-92 NSCLC = system: HOP-92 NSCLC
SN12C renal = system: SN12C renal
MDA-MB-435 = system: MDA-MB-435
MDA-MB-231 breast = system: MDA-MB-231 breast
UACC-257 melanoma = system: UACC-257 melanoma
HS 578T breast = system: HS 578T breast
OVCAR-8 ovarian = system: OVCAR-8 ovarian
A498 renal = system: A498 renal
HCT-15 colon = system: HCT-15 colon

Row | SMILES | GI50 (U251 CNS) | TGI (U251 CNS) | GI50 (HOP-92 NSCLC) | TGI (HOP-92 NSCLC) | GI50 (SN12C renal) | TGI (SN12C renal) | GI50 (MDA-MB-435) | TGI (MDA-MB-435) | GI50 (MDA-MB-231 breast) | TGI (MDA-MB-231 breast) | GI50 (UACC-257 melanoma) | TGI (UACC-257 melanoma) | GI50 (HS 578T breast) | TGI (HS 578T breast) | GI50 (OVCAR-8 ovarian) | TGI (OVCAR-8 ovarian) | GI50 (A498 renal) | TGI (A498 renal) | GI50 (HCT-15 colon) | TGI (HCT-15 colon)
1 | OCc1ncc(-c2ccccc2)s1 | > 100 µM | > 100 µM | 76.5 µM | > 100 µM | > 100 µM | > 100 µM | > 100 µM | > 100 µM | > 100 µM | > 100 µM | > 100 µM | > 100 µM | > 100 µM | > 100 µM | > 100 µM | > 100 µM | > 100 µM | > 100 µM | > 100 µM | > 100 µM
2 | COc1ccc(C2CC(c3cccc(OC)c3)=NN2C(=O)c2cc(OC)c(OC)c(OC)c2)cc1 (stereo not drawn) | 3.04 µM | > 100 µM | 1.04 µM | > 100 µM | 5.03 µM | > 100 µM | 0.307 µM | 1.71 µM | 1.94 µM | > 100 µM | 83.8 µM | > 100 µM | 1.21 µM | 5.37 µM | 5.83 µM | > 100 µM | 1.12 µM |  | 1.07 µM | > 100 µM
3 | CC(C)C[C@H]1C(=O)N2CCC[C@H]2[C@]2(O)O[C@](NC(=O)[C@@H]3C=C4c5cccc6[nH]c(Br)c(c56)C[C@H]4N(C)C3)(C(C)C)C(=O)N12 |  | > 100 µM |  | > 100 µM |  | > 100 µM |  | > 100 µM |  | > 100 µM |  | > 100 µM |  | > 100 µM |  | > 100 µM |  | > 100 µM |  | > 100 µM
4 | C/C(=C1/N=C(c2ccccc2)OC1=O)c1ccccc1 |  | > 100 µM |  | > 100 µM |  | > 100 µM |  | > 100 µM |  | > 100 µM |  | > 100 µM |  | > 100 µM |  | > 100 µM |  | > 100 µM |  | > 100 µM
5 | CNC(C)[C@H]1CCC2C3CCC4C[C@@H](N(C)C(=O)c5ccccc5)CC[C@]4(C)C3CC[C@@]21C (stereo partly drawn) | 1.25 µM | 5.4 µM | 0.384 µM | 3.52 µM | 1.82 µM | 8.34 µM | 0.632 µM | 2.42 µM | 1.6 µM | 3.87 µM | 2.19 µM | 5.53 µM | 1.34 µM | 3.94 µM | 3.44 µM | 23.2 µM | 1.65 µM | 10.2 µM | 0.407 µM | 2.19 µM
6 | O=C1c2ccccc2C(=O)c2sc(Nc3ccc(Cl)cc3)nc21 |  | 3.55 µM | 10.3 µM | 22.9 µM |  | 3.56 µM | 1.29 µM | 2.69 µM | 1.17 µM | 7.38 µM |  | 3.28 µM | 2.92 µM | 14.1 µM |  | 4.49 µM |  | 29.7 µM |  | 3.8 µM
7 | Nc1cc(N)cc(Cc2ccccc2)c1 |  | > 100 µM |  | > 100 µM |  | > 100 µM |  | > 100 µM |  | > 100 µM |  | > 100 µM |  | > 100 µM |  | > 100 µM |  | > 100 µM |  | > 100 µM
